Residues, ends and D or L forms follow the SMILES beside them. *: point of attachment. NHtBu = CC(C)(C)N*

Assay in the first series: not given
Conditions: not given
The molecule `O=C1c2c(O)cccc2C(C(=O)Cc2cccc3ccccc23)c2cccc(O)c21` displayed a lipophilicity (logP) of 4.61. Molecule `O=C1c2c(O)cccc2C(C(=O)C(c2ccccc2)c2ccccc2)c2cccc(O)c21` yielded a logP of 4.6. The molecule `O=C1c2c(O)cccc2C(C(=O)Cc2ccc3ccccc3c2)c2cccc(O)c21` showed a logP of 4.71.

`O=C1c2c(O)cccc2C(C(=O)CC2CCCCC2)c2cccc(O)c21`: the lipophilicity (logP) is 4.97.

The next series can be described thus: method code SF-AS, from DOI: 10.1021/jm00085a014, PMID: 1560439. Particulars: pH 7.4.
Consider `CCc1[nH]c(=O)[nH]c1C(=O)c1ccc(-n2ccnc2C)cc1`, for which the logD amounted to 0.85. For `CCc1[nH]c(=O)n(C(C)=O)c1C(=O)c1ccc(-n2ccnc2C)cc1`, the log distribution coefficient (logD) is 1.42.

`CCC(=O)n1c(C(=O)c2ccc(-n3ccnc3C)cc2)c(CC)[nH]c1=O`: the logD amounted to 1.72.

With `CCc1[nH]c(=O)n(C(=O)c2ccccc2)c1C(=O)c1ccc(-n2ccnc2C)cc1`, the logD turned out to be 1.96.

A further series in a line: method code SF-HPLC, from DOI: 10.1016/0378-5173(92)90116-j. Particulars: pH 7.4.
`CCC(C(=O)OCCCCCOC(=O)C(CC)C(CO)Cc1cncn1C)C(CO)Cc1cncn1C` (stereo not given) displayed a logD of 1.57.

Assay in another series: not given
Conditions: not given
The source holds these as a separate data set.
Molecule `CC(=O)OC(C(=O)ON=C1C2CC3CC(C2)CC1C3)c1ccccc1` (stereo not given) had a log partition coefficient (logP) of 3.28. Same read-out and setting: the result for `CCC(=O)OC(C(=O)NC12CC3CC(CC(C3)C1)C2)c1ccccc1` (stereo not given) reads 3.72; that for `CC(=O)OC(C(=O)NC12CC3CC(CC(C3)C1)C2)c1ccccc1` (stereo not given), 3.21. Same read-out and setting: the result for `CC(=O)C(C(=O)ON=C(C)C12CC3CC(CC(C3)C1)C2)c1ccccc1` (stereo not given) reads 4.64.

Assay in another series: not given
Conditions: not given
This is another data set of the same source.
`COc1ccc(N2C(=O)CN(Cc3c(C(=O)O)[nH]c4cc(Cl)cc(Cl)c34)C2=O)cc1` gave a logP of 2.26. Same read-out and setting: the result for `O=C(O)c1[nH]c2cc(Cl)cc(Cl)c2c1CN1CC(=O)N(c2ccc(OCCF)c(Cl)c2)C1=O` reads 2.53. The same measure, in the same setting: next, `O=C(O)c1[nH]c2cc(Cl)cc(Cl)c2c1CN1CC(=O)N(c2ccccc2OCCF)C1=O`: 1.51; `O=C(O)c1[nH]c2cc(Cl)cc(Cl)c2c1CN1CC(=O)N(c2ccc(OCCF)cc2)C1=O`: 2.07.

A further series in a line: method code SF-AS, from DOI: 10.1248/cpb.26.2832.
Conditions: not given
In turn, `CC(=O)OCC(=O)[C@@]1(O)CC[C@H]2[C@@H]3CCC4=CC(=O)CC[C@]4(C)[C@H]3C(=O)C[C@@]21C` returned a logP of 2.1.

With `CC(=O)OCC(=O)[C@@]1(O)CC[C@H]2[C@@H]3CCC4=CC(=O)C=C[C@]4(C)[C@H]3[C@@H](O)C[C@@]21C`, the logP is 2.4. Still for that read-out and setting: next, `CC(=O)OCC(=O)[C@@]1(O)[C@H](OC(C)=O)C[C@H]2[C@@H]3CCC4=CC(=O)C=C[C@]4(C)[C@@]3(F)[C@@H](O)C[C@@]21C`: 1.92; `CCCCC(=O)OC1(C(=O)CO)C(C)CC2C3CCC4=CC(=O)C=CC4(C)C3(F)C(O)CC21C` (stereo not given): 3.49.

Assay in the next series: not given
Conditions: not given
This is another data set of the same source.
In turn, `CC(C)C12C=CC(C)(CC1)C1C(=O)N(CCCCN3CCN(c4ccc5ccccc5n4)CC3)C(=O)C12` (stereo not given) came in with a logP of 6.3. On to `CC(C)C12CCC(C)(CC1)C1C(=O)N(CCCCN3CCN(c4ccc5ccccc5n4)CC3)C(=O)C12` (stereo not given), for which the logP was determined as 6.59. Take `O=C1C2C3C=CC(CC3)C2C(=O)N1CCCCN1CCN(c2ccc3ccccc3n2)CC1` (stereo not given): the logP was 3.83. Molecule `O=C1C2C3CCC(C3)C2C(=O)N1CCCCN1CCN(c2ccc3ccccc3n2)CC1` (stereo not given) registered a logP of 3.64.

The nature of another series: method code SF-AS, from DOI: 10.1039/p29900001191. Particulars: pH 12.0.
Turning to `c1ccc(-c2cc(-c3ccccc3)c(NCCN3CCOCC3)nn2)cc1`, the logD was 3.38. The same measure, in the same setting: next, `CCc1cc(-c2ccccc2)nnc1NCCN1CCOCC1`: 2.53; `NC(=O)c1cc(-c2ccccc2)nnc1NCCN1CCOCC1`: 1.86; `Cc1cc(-c2ccccc2)nnc1NCCN1CCOCC1`: 2.03.

A short description of the next series: method code SF, from DOI: 10.1097/00004424-199009001-00048. Particulars: pH 7.4.
Molecule `COCC(=O)Nc1c(I)c(C(=O)NCC(O)CO)c(I)c(C(=O)N(C)CC(O)CO)c1I` (stereo not given) gave a logD of -2.05. The same measure, in the same setting: the result for `C[C@H](O)C(=O)Nc1c(I)c(C(=O)NC(CO)CO)c(I)c(C(=O)NC(CO)CO)c1I` reads -2.42; that for `O=C(NCCO)c1c(I)c(C(=O)NCCO)c(I)c(N(CC(O)CO)C(=O)C(O)CO)c1I` (stereo not given), -2.64. Same read-out and setting: the result for `O=C(NCC(O)CO)c1c(I)c(N(CCO)C(=O)CO)c(I)c(N(CCO)C(=O)CO)c1I` (stereo not given) reads -2.55.

Assay in the next series: not given
Conditions: not given
This is another data set of the same source.
Consider `CCCC(c1c(O)c2ccccc2oc1=O)c1c(O)c2ccccc2oc1=O`, for which the lipophilicity (logP) turned out to be 2.31. Still for that read-out and setting: the result for `O=c1oc2ccccc2c(O)c1Cc1c(O)c2ccccc2oc1=O` reads 1.83; that for `CC(c1c(O)c2ccccc2oc1=O)c1c(O)c2ccccc2oc1=O`, 0.43. On the same count and under the same terms, next, `CCCCC(c1c(O)c2ccccc2oc1=O)c1c(O)c2ccccc2oc1=O`: 2.69.

Assay in another series: not given
Conditions: not given
The source holds these as a separate data set.
`CCOC(=O)C1=C(C)NC(C)=C(C(=O)OC)C1c1cccc([N+](=O)[O-])c1` (stereo not given) registered a logP of 2.88. On the same count and under the same terms, the result for `CC1=C(C(=O)OC(C)C)C(c2cccc([N+](=O)[O-])c2)C(C(=O)OC2CN(C(c3ccccc3)c3ccccc3)C2)=C(N)N1` (stereo not given) reads 5.18; that for `CCOC(=O)C1=C(C)NC(C)=C(C(=O)OC)C1c1cccc(Cl)c1Cl` (stereo not given), 3.65; that for `COC(=O)C1=C(C)NC(C)=C(C(=O)OC/C=C/c2ccccc2)C1c1cccc([N+](=O)[O-])c1` (stereo not given), 4.26.

The nature of another series: method code SF-RC, from DOI: 10.1023/a:1015846100305, PMID: 1788157. Particulars: pH 7.3.
Regarding `CC(=O)N[C@@H](C)C(=O)N[C@@H](Cc1ccccc1)C(=O)N[C@@H](C)C(=O)NC(C)(C)C` (Ac-Ala-Phe-Ala-NHtBu), the logD came to 1.01.

The next series is described as follows: method code SF-AS, from PMID: 5136171.
Conditions: not given
The molecule `CCOC(=O)c1cnc2cc(OCCOC)c(OCC(C)C)cc2c1O` came in with a logP of 1.84.

`CCCCOc1cc2c(O)c(C(=O)OCC)cnc2cc1OCCOC` displayed a logP of 1.72.

For `CCCOc1cc2c(O)c(C(=O)OCC)cnc2cc1OCCOC`, the logP turned out to be 1.7. Still for that read-out and setting: next, `CCOC(=O)c1cnc2cc(OCCOC)c(OC(C)C)cc2c1O`: 1.86.

A further series in a line: method code SF-AS, from DOI: 10.1016/j.ejmech.2015.02.036, PMID: 25728022. Particulars: pH 7.4.
In the case of `C=CCn1c(C)nc2cc(Nc3nc(N4CCCC4)nc4[nH]cnc34)ccc21`, the logD is 2.53.

In turn, `C=CCn1c(C)nc2cc(Nc3nc(N4CCCCC4)nc4[nH]cnc34)ccc21` yielded a pH-dependent lipophilicity (logD) of 1.55.

`CCCCn1c(C)nc2cc(Nc3nc(Cl)nc4[nH]cnc34)ccc21` gave a log distribution coefficient (logD) of 1.28.

`CCCCn1c(C)nc2cc(Nc3nc(N4CCCC4)nc4[nH]cnc34)ccc21`: the logD worked out at 1.36.

Assay in another series: not given
Conditions: not given
This is another data set of the same source.
`CC(C)Oc1ccccc1OC(=O)N(C)SN(C)C(=O)Oc1ccc2c(c1)OCO2`: the logP worked out at 2.7. The same measure, in the same setting: the result for `CCCCCCCCCCCCOC(=O)N(C)SN(C)C(=O)Oc1ccc2c(c1)OCO2` reads 7.39. The molecule `CCCCCCCCOC(=O)N(C)SN(C)C(=O)Oc1ccc2c(c1)OCO2` had a logP of 4.67. Same read-out and setting: next, `CCCCCCCCCCCCCCCCOC(=O)N(C)SN(C)C(=O)Oc1ccc2c(c1)OCO2`: 10.5.

A short description of the next series: method code SF, from DOI: 10.1021/jm5019252, PMID: 25906180. Particulars: pH 7.4.
`COC(=O)c1cc(OC(=O)N(C)c2ccccc2)ccc1O` displayed a logD of 3.13. Still for that read-out and setting: the result for `COC(=O)c1cc(OC(=O)N(c2ccccc2)c2ccccc2)ccc1O` reads 4.46. On the same count and under the same terms, next, `CN(C(=O)Oc1ccc(O)c(C(=O)NCc2cccnc2)c1)c1ccccc1`: 2.95; `CN(C(=O)Oc1ccc(O)c(C(=O)NCc2ccccc2)c1)c1ccccc1`: 4.19.

Assay in the next series: not given
Conditions: not given
The source holds these as a separate data set.
On to `CCCCCC(=O)OC1CC(n2cc(C=CBr)c(=O)[nH]c2=O)OC1COP1(=O)OCc2cccc(C)c2O1` (stereo not given), for which the logP was 2.6. The same measure, in the same setting: next, `CCC(=O)OC1CC(n2cc(C=CBr)c(=O)[nH]c2=O)OC1COP1(=O)OCc2cccc(C)c2O1` (stereo not given): 2.3; `CCCCCCCCCC(=O)OC1CC(n2cc(C=CBr)c(=O)[nH]c2=O)OC1COP1(=O)OCc2cccc(C)c2O1` (stereo not given): 2.8. With `Cc1cccc2c1OP(=O)(OCC1OC(n3cc(C=CBr)c(=O)[nH]c3=O)CC1OC(=O)C(C)(C)C)OC2` (stereo not given), the lipophilicity (logP) amounted to 3.

Assay in the next series: not given
Conditions: not given
The source holds these as a separate data set.
Regarding `COc1nc(C)ncc1OCC1(c2cccc(F)c2)CC1C(=O)Nc1ccc(F)cn1` (stereo not given), the lipophilicity (logP) was found to be 3.65.

`Cn1c(CCC(=O)N2CCC[C@H]2C(=O)Nc2ccccc2-c2ccccc2)nc2ccccc21` displayed a logP of 3.79. On the same count and under the same terms, the result for `COc1ccc(CNC(=O)c2cc(-c3cncc(Cl)c3)cnc2-c2ccccn2)nc1OC` reads 3.2. On the same count and under the same terms, next, `COc1ccccc1C(=O)N1CCCN(c2nc3ccc(Cl)cc3s2)CC1`: 4.98.

Assay in the next series: not given
Conditions: not given
The source holds these as a separate data set.
With `CCCc1onc(C)c1N=C1C=C(O)C(=O)c2ccccc21`, the lipophilicity (logP) turned out to be 2.52. On the same count and under the same terms, next, `CCC1ON=C(C)C1N=C1C=C(OC)C(=O)c2ccccc21` (stereo not given): 2.43. Still for that read-out and setting: the result for `CCc1onc(C)c1N=C1C=C(Nc2c(C)noc2CC)C(=O)c2ccccc21` reads 2.71; that for `CCc1onc(C)c1N=C1C=C(O)C(=O)c2ccccc21`, 2.

In general, logP refers to a log measure of how a compound divides between an organic and an aqueous phase. A low value points to lower lipophilicity. Broadly, the logD is lipophilicity at a set pH, counting ionised and neutral species. Read a high logD as a more lipophilic compound.
